Literature values as cited in patent publication US7794750B2, “Controlled-release formulations, method of manufacture, and use thereof” (Mutual Pharmaceutical Company, Inc., priority 2008, dated 2010).
Counter-ions that a name gives are not always drawn.

Conditions: 25° C., pH of about 7

aqueous solubility: 3290 µg/mL
Compound: OCCOCCN1CCN(C2=Nc3ccccc3Sc3ccccc32)CC1 [Quetiapine fumarate, quetiapine fumarate]
